Results from ChEMBL document CHEMBL5376005, “Gut Metabolite Indoxyl Sulfate Has Selective Deleterious and Anticancer Effect on Colon Cancer Cells” (J Med Chem, 2023).
Structures can show the parent of a compound that is named as a salt. Calls of active or inactive are those of the source. The calls are words filed in the database; no cut-off is given here.

Assays:
[1] = test system: HT-29; experiment: Induction of cell cycle arrest in human HT-29 cells assessed as increase in proportion of cells at G2/M phase at 5 mM incubated for 48 hrs by RNase A/Triton X-100/PI staining based flow cytometry analysis relative to control; format: functional
[2] = test system: HCT-116; experiment: Cytotoxicity against human HCT-116 cells assessed as cell viability at 10 mM measured after 48 hrs by MTT assay (reference value: 100%); format: functional; details: HCT-116, 48 h, read-out: Activity
[3] = test system: HT-29; experiment: Induction of morphological changes in human HT-29 cells assessed as reduction in cell number at 1.25 to 10 mM incubated for 24 to 72 hrs by bright field microscopy analysis; format: functional, cell-based; details: dose 1.25-10 mM, time 24-72 hrs
[4] = test system: HT-29; experiment: Cytotoxicity against human HT-29 cells assessed as cell viability at 10 mM measured after 72 hrs by MTT assay (reference value: 100%); format: functional; details: HT-29, 72 h, read-out: Activity
[5] = test system: HT-29; experiment: Induction of apoptosis in human HT-29 cells assessed as increase in apoptotic cells at 5 mM incubated for 48 hrs by annexin V-FITC/PI staining based flow cytometry analysis (reference value: 3%); format: functional
[6] = test system: Cell membrane; experiment: Induction of membrane integrity loss in human HCT-116 cells assessed as LDH release in supernatant at 10 mM incubated for 48 hrs by absorbance based assay relative to control
[7] = test system: HT-29; experiment: Cytotoxicity against human HT-29 cells assessed as reduction in colony formation pretreated for 48 hrs and further incubated for 10 days with media replacement for every alternate day; format: functional, cell-based; details: dose 1.25-10 mM
[8] = test system: HCT-116; experiment: Induction of morphological changes in human HCT-116 cells assessed as reduction in cell number at 1.25 to 10 mM incubated for 24 to 72 hrs by bright field microscopy analysis; format: functional, cell-based; details: dose 1.25-10 mM, time 24-72 hrs
[9] = Toxicity in wild type BALB/c mouse assessed as histological change in colon at 100 mM, REC measured after 12 weeks by H and E staining based light microscopic analysis; format: tissue-based; details: in vivo, other, 2016 h, 100000 µM
[10] = Toxicity in wild type BALB/c mouse assessed as change in spleen length at 100 mM, REC measured after 12 weeks; details: in vivo, other, 2016 h, 100000 µM
[11] = test system: HCT-116; experiment: Induction of morphological changes in human HCT-116 cells assessed as detachment from substrate at 1.25 to 10 mM incubated for 24 to 72 hrs by bright field microscopy analysis; format: functional, cell-based; details: dose 1.25-10 mM, time 24-72 hrs
[12] = Toxicity in wild type BALB/c mouse assessed as reduction in body weight at 100 mM, ip measured after 12 weeks; format: organism-based; details: in vivo, 2016 h, 100000 µM
[13] = test system: HCT-116; experiment: Induction of apoptosis in human HCT-116 cells assessed as increase in apoptotic cells at 10 mM incubated for 48 hrs by annexin V-FITC/PI staining based flow cytometry analysis (reference value: 3%); format: functional
[14] = test system: HCT-116; experiment: Induction of DNA damage in human HCT-116 cells by comet assay; format: functional, cell-based
[15] = test system: HT-29; experiment: Induction of cell cycle arrest in human HT-29 cells assessed as increase in proportion of cells at G2/M phase incubated for 48 hrs by RNase A/Triton X-100/PI staining based flow cytometry analysis; format: functional; details: dose 1.25-10 mM
[16] = test system: HT-29; experiment: Cytotoxicity against human HT-29 cells assessed as cell viability at 10 mM measured after 48 hrs by MTT assay (reference value: 100%); format: functional; details: HT-29, 48 h, read-out: Activity
[17] = test system: HCT-116; experiment: Cytotoxicity against human HCT-116 cells assessed as reduction in cell viability at 0.01 to 10 mM by CellTiter-Glo luminescent cell viability assay; format: functional, cell-based; details: dose 0.01-10 mM, time 48-72 hrs, TDE = time-dependent effect
[18] = Toxicity in wild type BALB/c mouse assessed as inflammatory symptoms by measuring change in TNFalpha level at 100 mM, REC measured for 0 to 3 months by ELISA; details: in vivo, other, 100000 µM, time 0-3 months
[19] = Toxicity in wild type BALB/c mouse assessed as histological change in rectum at 100 mM, REC measured after 12 weeks by H and E staining based light microscopic analysis; details: in vivo, other, 2016 h, 100000 µM
[20] = test system: HCT-116; experiment: Induction of cell cycle arrest in human HCT-116 cells assessed as increase in proportion of cells at G2/M phase at 5 mM incubated for 48 hrs by RNase A/Triton X-100/PI staining based flow cytometry analysis relative to control; format: functional
[21] = test system: HCT-116; experiment: Cytotoxicity against human HCT-116 cells assessed as reduction in cell viability at 0.01 to 10 mM by MTT assay; format: functional, cell-based; details: dose 0.01-10 mM, time 24-72 hrs, TDE = time-dependent effect
[22] = test system: Cell membrane; experiment: Induction of membrane integrity loss in human HT-29 cells assessed as increase in LDH release in supernatant incubated for 48 hrs by absorbance based assay; format: subcellular; details: dose 1.25-10 mM
[23] = test system: HT-29; experiment: Induction of morphological changes in human HT-29 cells assessed as formation of intracellular vesicles at 1.25 to 10 mM incubated for 24 to 72 hrs by bright field microscopy analysis; format: functional, cell-based; details: dose 1.25-10 mM, time 24-72 hrs
[24] = Toxicity in wild type BALB/c mouse assessed as change in intestinal length at 100 mM, REC measured after 12 weeks; format: tissue-based, Intestine; details: in vivo, other, 2016 h, 100000 µM
[25] = Toxicity in wild type BALB/c mouse assessed as inflammatory symptoms by measuring change in IL-1beta level at 100 mM, ip measured for 0 to 3 months by ELISA; format: organism-based; details: in vivo, 100000 µM, time 0-3 months
[26] = test system: Cell membrane; experiment: Induction of membrane integrity loss in human HT-29 cells assessed as LDH release in supernatant at 5 mM incubated for 48 hrs by absorbance based assay relative to control; format: subcellular
[27] = test system: HT-29; experiment: Cytotoxicity against human HT-29 cells assessed as cell viability at 10 mM measured after 72 hrs by CellTiter-Glo luminescent cell viability assay (reference value: 100%); format: functional; details: HT-29, 72 h, read-out: Activity
[28] = test system: HT-29; experiment: Induction of morphological changes in human HT-29 cells assessed as appearance of rounded morphology at 1.25 to 10 mM incubated for 24 to 72 hrs by bright field microscopy analysis; format: functional, cell-based; details: dose 1.25-10 mM, time 24-72 hrs
[29] = Toxicity in wild type BALB/c mouse assessed as inflammatory symptoms by measuring change in fecal consistency at 100 mM, REC measured after 12 weeks; details: in vivo, other, 2016 h, 100000 µM
[30] = test system: HT-29; experiment: Cytotoxicity against human HT-29 cells assessed as cell viability at 10 mM measured after 24 hrs by MTT assay (reference value: 100%); format: functional; details: HT-29, 24 h, read-out: Activity
[31] = Toxicity in wild type BALB/c mouse assessed as histological change in colon at 100 mM, ip measured after 12 weeks by H and E staining based light microscopic analysis; format: organism-based; details: in vivo, 2016 h, 100000 µM
[32] = Toxicity in wild type BALB/c mouse assessed as reduction in body weight at 100 mM, REC measured after 12 weeks; details: in vivo, other, 2016 h, 100000 µM
[33] = Toxicity in wild type BALB/c mouse assessed as inflammatory symptoms by measuring change in TNFalpha level at 100 mM, ip measured for 0 to 3 months by ELISA; format: organism-based; details: in vivo, 100000 µM, time 0-3 months
[34] = test system: HCT-116; experiment: Induction of morphological changes in human HCT-116 cells assessed as appearance of rounded morphology at 1.25 to 10 mM incubated for 24 to 72 hrs by bright field microscopy analysis; format: functional, cell-based; details: dose 1.25-10 mM, time 24-72 hrs

O=S(=O)(O)Oc1c[nH]c2ccccc12 [INDOXYL SULFATE]
Activity [1]: 14.2%
viability at 10000 µM [2]: 7%
Activity [3]: Active
viability at 10000 µM [4]: 17%
Activity [5]: 8%
Activity [6]: 86%
Activity [7]: Dose-Dependent Effect
Activity [8]: Active
Activity [9]: Non-Toxic
Activity [10]: Non-Toxic
Activity [11]: Active
Activity [12]: Non-Toxic
Activity [13]: 13%
Activity [14]: inactive
Activity [15]: Dose-Dependent Effect
viability at 10000 µM [16]: 30%
Activity [17]: Tde
Activity [18]: Non-Toxic
Activity [19]: Non-Toxic
Activity [20]: 18.1%
Activity [21]: Tde
Activity [22]: Dose-Dependent Effect
Activity [23]: Active
Activity [24]: Non-Toxic
Activity [25]: Non-Toxic
Activity [26]: 82%
viability at 10000 µM [27]: 19%
Activity [28]: Active
Activity [29]: Non-Toxic
viability at 10000 µM [30]: 41%
Activity [31]: Non-Toxic
Activity [32]: Non-Toxic
Activity [33]: Non-Toxic
Activity [34]: Active
